The pIC50 is the negative decadic logarithm of the IC50, by convention in mol/L. Lower therefore signals a large IC50.

pIC50: −log10 of the molar value.

For one experiment, the system named is I-kB and NF-kB p65. Nature of the experiment: Effect on I-kB and NF-kB p65 in cytoplasm and nucleus (FIG. 14). In kind it is cell-based. The settings on record: FIG. 14 A. The source says: A) I-kB was not affected by CMPD exposure while it was reduced by TNF. B) CMPDs increased cytoplasmic NF-kB p65. C) CMPDs increased nuclear localization of NF-kB p65. D) The sum of CMPD effects on P65 in the cytoplasm and in the nucleus.
In the case of TNF-α [reference compound], the I-kB result is recorded as “reduced”.

For a further experiment, the system named is SH-5YSY cells. Nature of the experiment: Blasticidin sensitivity of SH-5YSY cells.
Settings: not given
In kind it is cell-based, human. The source says: SH-5YSY human neuroblastoma cell line was obtained from the American Tissue Culture collection (ATCC). The cells were expanded and frozen for long term storage. A commercially available expression vector containing the NF-kB promoter enhancer region driving the firefly lucipherase gene expression (see FIG. 1) was obtained. This plasmid was designed for transient expression studies and was devoid of any antibiotic-resistance conferring gene. A second plasmid containing the gene conferring resistance to blasticidin was also used. A dual transfection approach to obtain stable cell lines was employed. Prior to transfection, blasticidin sensitivity of the cell line was performed (See FIG. 2). It was determined that SH-5YSY cells were sensitive to the antibiotic toxicity and that 3 μg/ml caused total cell death (FIG. 2). After expanding and purifying adequate quantities of these plasmids, SH-5YSY cells were co-transfected with the above two plasmids and the clonal selection of the transfected cells in the presence of blasticidin proceeded. […] The optimal conditions for this assay to be carried out in a high throughput setting has been determined. Initially, the optimal number of cells needed was assessed. […] This cell line allows growing large scale quantities of cells fairly easily.
Take `CN(CC[C@H](N)CC(=O)N[C@H]1C=C[C@H](n2ccc(N)nc2=O)O[C@@H]1C(=O)O)C(=N)N` [blasticidin]: the “concentration causing total cell death” value was 3 µg/mL.

Another experiment has as its system NF-kB. Nature of the experiment: NF-kB promoter-driven firefly luciferase reporter assay in SH-5YSY clone C1. Particulars: 0.625 up to 40 ng/ml. In kind it is cell-based, human. The source says:
SH-5YSY human neuroblastoma cell line was obtained from the American Tissue Culture collection (ATCC). The cells were expanded and frozen for long term storage. A commercially available expression vector containing the NF-kB promoter enhancer region driving the firefly lucipherase gene expression (see FIG. 1) was obtained. This plasmid was designed for transient expression studies and was devoid of any antibiotic-resistance conferring gene. A second plasmid containing the gene conferring resistance to blasticidin was also used. A dual transfection approach to obtain stable cell lines was employed. Prior to transfection, blasticidin sensitivity of the cell line was performed (See FIG. 2). It was determined that SH-5YSY cells were sensitive to the antibiotic toxicity and that 3 μg/ml caused total cell death (FIG. 2). After expanding and purifying adequate quantities of these plasmids, SH-5YSY cells were co-transfected with the above two plasmids and the clonal selection of the transfected cells in the presence of blasticidin proceeded. Several clones were identified that were both resistant to blasticidin and expressed the firefly luciferase upon exposure to TNF-α, □ a known inducer of NF-kB (See FIG. 3). After several assessments, a clone, C1, which expressed high levels of stimulated-luciferase expression and maintained it over time (see FIG. 3) was identified. To date, this clone has been in culture for over 37 passages without significant decline of the gene of interest induction. The optimal conditions for this assay to be carried out in a high throughput setting has been determined. Initially, the optimal number of cells needed was assessed. In FIG. 4 it is shown the effect of using a range of cells from 10,000 to 40,000. […] The assays has have been implemented using a similar cell density for HTS analysis without excessive problems. This cell line allows growing large scale quantities of cells fairly easily.
Successively, the optimal time of incubation and media requirements were assessed. […] These conditions are relatively affordable in HTS settings. Finally, since during robotic handling the plates containing the cells spend a significant amount of time outside the incubator and since phenol red could interfere with the reagents in the luciferase activity assay kit, the effect of using a phenol red free HEPES-buffered media was assessed. As shown in FIG. 5 there is a very little effect of phenol red free, HEPES-buffered media on the assay response and dynamic range. Therefore, the assessment is that it is possible to run this assay using these more forgiving media. Since the compounds contained in the most commonly used libraries are dissolved in DMSO, the effect of DMSO on both luciferase expression in response to TNF-α and C1 clone survival during assay simulations was characterized. The effect of increasing concentration of DMSO ranging from 0.05% through 0.5% on TNF-α induction of luciferase (black line and black scale) is shown in FIG. 6. Also the effect of DMSO on baseline expression of luciferase in the C1 clone is shown in FIG. 6 (gray line and gray scale). In FIG. 7, it is shown the effect of DMSO on cell survival in the same conditions described in FIG. 6. In these experimental settings cells, settled for 24 hours, and then were incubated for an additional 24 hours with DMSO at the indicated concentrations. At the end of the incubation phase cell viability was assessed using the commercially available kit Cell Titer Glo™ following the manufacturer instructions ([…]). […] Finally, the effect of different concentrations of TNF-α was studied in the clone C1.
Essential to development of an assay for high throughput screening is the assessment of Z′ values. This statistical parameter assesses the possibility that data obtained in a single well are statistically significant. In general, assays can generate negative and positive Z′ values. Negative Z′ values indicate a very unpredictable assay. […]
In general terms: Reporter assays use an easily measured gene product as a stand-in for the process of interest.
For TNF-α [reference compound], the “luciferase expression in C1 cells” value is “linear increase”.

The experiment is the same for the next values; noted with them: Homo sapiens; SH-5YSY clone C1, NF-kB luciferase reporter.
In the case of `Oc1ccc2ccccc2c1C1NN=C(c2ccccc2)S1` (stereo not drawn) [AB00093094], the pIC50 was 6.10.

In turn, `COc1ccccc1C1CCN(C(=O)NCCc2ccccc2)CC1` [AB00013805] had a pIC50 of 7.17.

Compound `O=c1c(-c2ccc3c(c2)OCCO3)coc2cc(O)cc(O)c12` [AB00390364] gave a pIC50 of 4.64.

For the compound `CC(=O)CSc1nc2cc3c(cc2cc1C#N)OCCO3` [AB00614173], the pIC50 was 6.98.

`Cc1ccc(NC(=O)N2CCc3ccccc32)cc1C` [AB00616066] had a pIC50 of 6.44.

On to `COC(=O)c1sc2nc(-c3ccccc3)ccc2c1N` [AB00079098], for which the pIC50 was 7.17.

In turn, `Clc1ccc(-c2nnc(-c3ccccc3Cl)o2)cc1` [AB00084000] had a pIC50 of 7.21.

The compound `CN(Cc1cnc2nc(N)nc(N)c2c1)c1ccc(C(=O)N[C@@H](CCC(=O)O)C(=O)O)cc1` [AB00171904] gave a pIC50 of 6.80.

`Cc1nnc(SCC(=O)Nc2ccc(-c3nc4ccccc4s3)cc2)s1` [AB00317535]: the pIC50 was 6.48.

Turning to `Brc1ccc(-c2cn3ccccc3n2)s1` [AB00528862], the pIC50 was 7.03.

Compound `Fc1ccc(-c2cn3ccsc3n2)cc1` [AB00093742] had a pIC50 of 6.42.

For `Cc1ccc2nc(-c3ccc(NC(=O)COC(=O)c4cncc(Br)c4)cc3)sc2c1` [AB00542926], the pIC50 is 6.41.

The compound `Fc1ccc(-c2nc3n(n2)Cc2ccccc2-3)cc1` [AB00371839] had a pIC50 of 6.90.

For `COc1cccc(-c2nnc(-c3ccccc3NS(=O)(=O)c3ccc(NC(C)=O)cc3)o2)c1` [AB00027137], the pIC50 was 6.89.

`Cc1ccccc1-c1cc(-c2ccccc2O)n[nH]1` [AB00101695] had a pIC50 of 6.24.

The compound `Cc1ccc(/C=C2/SC(=S)N(CCC(=O)Nc3ccc(O)cc3)C2=O)cc1` [AB00089877] gave a pIC50 of 2.88.

Turning to `CCOC(=O)CC[C@H](NC(=O)c1ccc(NCc2cnc3nc(N)nc(N)c3c2C)cc1)C(=O)OCC` [AB00174102], the pIC50 is 6.46.

Take `O=C(O)c1ccc(-c2nnc(-c3ccccc3Cl)o2)cc1` [AB00101507]: the pIC50 is 6.47.

On to `CC(C)(C)c1ccc(-c2csc(N)n2)cc1` [AB00095939], for which the pIC50 is 6.88.

On to `COc1ccc(-c2cn3c4c(sc3n2)CCCC4)cc1` [AB00315863], for which the pIC50 was 6.19.

With `COc1ccc(-c2cc(-c3ccccc3O)[nH]n2)cc1` [AB00461411], the pIC50 is 6.01.

`COCCNc1nc(-c2cc3ccccc3o2)cs1` [AB00546194] had a pIC50 of 5.86.

Compound `Cc1ccc(-c2csc(Nc3ccc(C(=O)O)cc3)n2)cc1C` [AB00097765] gave a pIC50 of 7.21.

Take `Cc1ccc2nc(-c3ccc(NS(=O)(=O)c4ccccc4OC(F)(F)F)cc3)sc2c1` [AB00003451]: the pIC50 is 6.81.

For `CCC(=O)NC(c1ccccc1Cl)c1ccc2cccnc2c1O` (stereo not drawn) [AB00100961], the pIC50 is 5.40.

Consider `O=C(/C=C\Nc1cc(Cl)ccc1O)c1ccc2c(c1)OCO2` [AB00101723], for which the pIC50 is 6.67.

The compound `S=C(c1ccc(-c2ccc(Cl)c(Cl)c2)o1)N1CCOCC1` [AB00091724] had a pIC50 of 5.29.

As for `S=C(c1ccc(-c2cccc(Cl)c2)o1)N1CCOCC1` [AB00092117], the pIC50 is 5.47.

`O=C(/C=C/Nc1cc(Cl)ccc1O)c1ccccc1` [AB00087011] showed a pIC50 of 6.67.

For `COc1cc(C)c(S(=O)(=O)Nc2ccc(-c3nc4ccc(C)cc4s3)cc2)c(C)c1C` [AB00012207], the negative logarithm of the IC50 (pIC50) was 6.81.

For the compound `O=C(Nc1ccc2c(c1)OCCO2)Nc1ccc2c(c1)OCO2` [AB00616088], the pIC50 is 6.94.

Regarding `COc1ccc(C(=O)/C=C(\C)Nc2ccccc2O)cc1` [AB00102118], the pIC50 was 6.63.

The compound `Cc1ccc2nc(-c3ccc(NC(=O)CCN4C(=O)c5ccccc5C4=O)cc3)sc2c1` [AB00547004] had a negative logarithm of the IC50 (pIC50) of 6.81.

`O=C(CCN1C(=O)/C(=C\C=C\c2ccccc2)SC1=S)Nc1cc(Cl)ccc1O` [AB00120582] had a pIC50 of 3.84.

In turn, `O=C(Nc1ccc(F)cc1)N1CCc2ccccc21` [AB00105762] showed a pIC50 of 6.74.

In the case of `COc1ccc(-c2noc(-c3cccc(OC)c3)n2)cc1` [AB00093467], the pIC50 is 7.09.

Compound `O=c1[nH]c(/C=C/c2ccc(O)cc2)nc2ccccc12` [AB00097657] showed a pIC50 of 7.19.

On to `COc1ccc(NC(=O)N2CCc3ccccc32)cc1` [AB00329861], for which the pIC50 was 6.16.

Consider `COc1ccccc1-c1nc(-c2ccccc2Cl)no1` [AB00093511], for which the pIC50 is 7.10.

In the case of `O=C1/C(=C\c2ccco2)Sc2ccccc21` [AB00083422], the pIC50 was 2.44.

On to `CCC(=O)NC(c1ccc(C)cc1)c1ccc2cccnc2c1O` (stereo not drawn) [AB00101018], for which the pIC50 was 5.50.

`CCC(=O)NC(c1cccc([N+](=O)[O-])c1)c1ccc2cccnc2c1O` (stereo not drawn) [AB00101133] had a pIC50 of 5.43.

Compound `CC(C)Oc1cc(O)c2c(=O)c(-c3ccc(O)cc3)coc2c1` [AB00431689] had a pIC50 of 5.34.

The compound `Oc1ccccc1-c1cc(-c2ccc3c(c2)OCCO3)[nH]n1` [AB00440877] had a pIC50 of 6.19.

As to `Cc1ccc(-c2csc(Nc3ccccc3)n2)cc1` [AB00079697], the pIC50 is 6.85.

`COc1cc(NCc2cnc3nc(N)nc(N)c3c2C)cc(C(F)(F)F)c1` [AB00443206]: the pIC50 was 6.91.

For the compound `Clc1ccc(C2NN=C(c3ccccc3)S2)cc1` (stereo not drawn) [AB00093093], the pIC50 is 5.39.

`COc1ccccc1-c1nc(-c2ccc(C)cc2)no1` [AB00093558] gave a pIC50 of 7.00.

Turning to `c1ccc(CSCc2cn3ccsc3n2)cc1` [AB00421150], the pIC50 is 4.90.

`O=C(CCN1C(=O)/C(=C\C=C\c2ccccc2)SC1=S)Nc1ccc(C(=O)O)cc1` [AB00121550] showed a pIC50 of 6.26.

Compound `COc1ccc(-c2coc3cc(OC)cc(O)c3c2=O)cc1` [AB00052939] gave a pIC50 of 5.76.

`O=C1/C(=C\c2ccc(O)cc2)Sc2ccccc21` [AB00083765]: the pIC50 is 5.43.

Regarding `COc1ccc(-c2csc(Nc3ccc(N(C)C)cc3)n2)cc1` [AB00101290], the pIC50 is 6.84.

The compound `Cc1ccc2nc(-c3ccc(NS(=O)(=O)c4ccc(F)c(Cl)c4)cc3)sc2c1` [AB00011625] gave a pIC50 of 6.95.

For `c1ccc2oc(-c3csc(N4CCOCC4)n3)cc2c1` [AB00613917], the pIC50 is 6.02.

With `Cc1ccc(/C=C2\Sc3ccccc3C2=O)s1` [AB00534272], the pIC50 is 5.22.

As to `Brc1cccc(-c2cn3ccsc3n2)c1` [AB00093745], the pIC50 was 6.60.

Compound `C=C(C)CN(CC)C(=O)Nc1ccc(-c2ccccc2)cc1` [AB00022459] showed a pIC50 of 7.19.

In the case of `Oc1ccccc1C1NN=C(c2ccccc2)S1` (stereo not drawn) [AB00092734], the pIC50 is 6.42.

With `Nc1nc(-c2ccc(-c3ccccc3)cc2)cs1` [AB00074195], the pIC50 is 6.91.

As for `Clc1c(CSc2nc3ccccc3o2)nc2sccn12` [AB00428616], the pIC50 was 5.62.

`S=C(c1ccc(-c2ccc(Cl)cc2)o1)N1CCOCC1` [AB00092070] gave a pIC50 of 6.11.

For `C=CCNc1nc(-c2cc3ccccc3o2)cs1` [AB00546606], the pIC50 is 6.22.

For the origin of these results see patent publication US10953017B2, “Treatment of neurodegenerative diseases, causation of memory enhancement, and assay for screening compounds for such” (Southern Research Institute, priority 2009, dated 2021).
